# From ChEMBL document CHEMBL1152059, “Novel inhibitors of influenza sialidases related to zanamivir. Heterocyclic replacements of the glycerol sidechain” (Bioorg Med Chem Lett, 1997)
# Target: Neuraminidase (Influenza A virus (A/Puerto Rico/8/1934(H1N1)), UniProt P03468)
# Assay: Inhibitory activity against influenza A virus sialidase
smiles,measurement,value
CC(=O)N[C@@H]1[C@@H](NC(=O)OC(C)(C)C)C=C(C(=O)OC(c2ccccc2)c2ccccc2)O[C@H]1c1nnc(Cc2ccccc2)[nH]1,IC50,87 µM
CC(=O)N[C@@H]1[C@@H](N)C=C(C(=O)O)O[C@H]1c1nc(Cc2ccccc2)no1,IC50,99 µM
CCCCc1nnc([C@@H]2OC(C(=O)O)=C[C@H](N)[C@H]2NC(C)=O)n1CCC,IC50,0.33 µM
CCCn1nc(Cc2ccccc2)nc1[C@@H]1OC(C(=O)OC(c2ccccc2)c2ccccc2)=C[C@H](NC(=O)OC(C)(C)C)[C@H]1NC(C)=O,IC50,0.07 µM
CCCCc1noc([C@@H]2OC(C(=O)O)=C[C@H](N)[C@H]2NC(C)=O)n1,IC50,56 µM
CC(=O)N[C@@H]1[C@@H](N)C=C(C(=O)O)O[C@H]1c1nc(C)no1,IC50,23 µM
CC(=O)N[C@@H]1[C@@H](N)C=C(C(=O)O)O[C@H]1c1nc(-c2ccccc2)no1,IC50,14 µM
CCCn1nc([C@@H]2OC(C(=O)OC(c3ccccc3)c3ccccc3)=C[C@H](NC(=O)OC(C)(C)C)[C@H]2NC(C)=O)nc1Cc1ccccc1,IC50,12 µM
